Patent US20260263424A1, “Formulations of 2-Arylbenzimidazole Compounds” (Tranquis Therapeutics, Inc., priority 2022, published 2026)
Read-outs that look alike come from different tables or passages of the source. Blank lines part the entries; values can stand above or below the molecule they belong to.

Columns and labels:
[1] = Multiple dose phase 1 trial, plasma pharmacokinetics of compound 1 SDD formulation QD for 7 days; conditions: for AR AUC (accumulation ratio based on AUC(0-tau)) / AR Cmax (accumulation ratio): Day 7, plasma
[2] = system: murine models of neurodegenerative diseases, including Parkinson's disease, Alzheimer's disease, and amyotrophic lateral sclerosis (ALS); conditions: administered orally at 25 mg/kg; cited from earlier work
[3] = WO 2021/262617; cited from earlier work
[4] = system: Ppargc1α (PGC-1α) expression; conditions: Zhang et al., Diabetes 62:1297-1307 (2013); cited from earlier work
[5] = Single ascending dose (SAD) phase 1 trial, plasma pharmacokinetics of MC, SDD and HME formulations; conditions: for Frel Cmax/D (relative bioavailability, geometric mean): dose normalized comparison to Regimen C: 540 mg compound 1 MC formulation; for AUC(0-last) (geometric mean): fasted, plasma
[6] = cited from earlier work
[7] = male, human, in vivo, 120 mg, 7 days
[8] = human, in vivo
[9] = Regimen I: 120 mg compound 1 SDD formulation QD, fasted
[10] = Regimen J: 90 mg compound 1 SDD formulation QD, fed
[11] = Regimen K: 300 mg compound 1 SDD formulation QD, fed

SMILES: CC(C)(C)c1ccc(-c2nc3ccccc3[nH]2)cc1 [Compound 1, 2-(4-tert-butylphenyl)-1H-benzimidazole]
AR AUC (accumulation ratio based on AUC(0-tau)) [1, 9]: 1.58
AR Cmax (accumulation ratio) [1, 9]: 1.59
AR AUC (accumulation ratio based on AUC(0-tau)) [1, 10]: 1.24
AR Cmax (accumulation ratio) [1, 10]: 1.03
maximum individual AUC(0-tau) as share of the AUC(0-tau) exposure limit ([1]; Regimen J: 90 mg compound 1 SDD formulation, fed, Day 1): 10.9%
AR AUC (accumulation ratio based on AUC(0-tau)) [1, 11]: 1.66
AR Cmax (accumulation ratio) [1, 11]: 1.74
disease severity [2]: reduce disease severity
myeloid-mediated inflammation [2]: suppress myeloid-mediated inflammation
treating systemic immune activation [3]: effective
effect on Ppargc1α (PGC-1α) expression [4]: activator
dose proportionality of Cmax, AUC(0-24) and AUC(0-inf) ([5]; MC formulation, single doses of 60 and 180 mg compound 1): slightly sub-proportionally
Frel Cmax/D (relative bioavailability, geometric mean) ([5]; Regimen D 180 mg compound 1 SDD formulation): 218%
AUC(0-last) (geometric mean) ([5]; Regimen D: single oral 180 mg compound 1 SDD formulation): 0.611 µg·h/mL
Frel Cmax (relative bioavailability, geometric mean) ([5]; Regimen E 180 mg compound 1 HME formulation, comparison to Regimen D 180 mg compound 1 SDD formulation): 56.6%
Frel Cmax/D (relative bioavailability, geometric mean) ([5]; Regimen E 180 mg compound 1 HME formulation): 124%
AUC(0-last) (geometric mean) ([5]; Regimen E: single oral 180 mg compound 1 HME formulation): 0.36 µg·h/mL
solubility under aqueous conditions [6]: highly insoluble

AR AUC (accumulation ratio based on AUC(0-tau)) [7]: 1.46
dose proportionality of Cmax, AUC(0-24) and AUC(0-inf) ([8]; 180 mg): proportionally
Frel Cmax (relative bioavailability, geometric mean) ([8]; male, 180 mg): 64.9%
T1/2 (geometric mean) ([8]; male, po, 180 mg): 9.17 h
Tmax (median) ([8]; male, po, 180 mg): 2 h
Cmax (geometric mean) ([8]; male, po, 270 mg): 0.621 µg/mL
Tmax (median) ([8]; male, po, 270 mg): 2 h
SMILES: CC(C)(C)c1ccc(-c2nc3cc(O)ccc3[nH]2)cc1 [Compound 2, 2-(4-(tert-butyl)phenyl)-1H-benzo[d]imidazol-5-ol]
